Data: patent publication US9585933B2, “Therapeutic use of peptide inhibitors of NADPH oxidase; aerosolization as a delivery mechanism” (University of Pittsburgh—Of the Commonwealth System of …, priority 2011, dated 2017)
Where no end group is shown, it is not given here.

Assays:
[1] = test system: hypoxia-induced pulmonary hypertension in mice; experiment: Aerosolized peptide in hypoxia-induced pulmonary hypertension, right ventricular hypertrophy; assay type: in vivo, mice (C57BL/6)
Procedure: Nebulization was performed using a peptide solution of 5.6 mg of the Nox2ds-tat polypeptide—RKKRRQRRRCSTRIRRQL (SEQ ID NO: 7)—was dissolved in 5 mL of PBS. The polypeptide-containing solution was placed in a nebulization chamber which consisted of a Plexiglas living environment measuring 24×10×9 in. A diffuser was placed in front of the inlet to allow equal distribution of nebulized droplets, and a controlled fan pulled air through the environment
The polypeptide was delivered to mice (C57BL/6, n=2) at an air flow rate of 8 L/minute for 20 minutes per treatment. Treatment was repeated every other day for 21 days.
FIG. 7 (top panel) is a graph showing right ventricular pressure and FIG. 7 (bottom panel) is a graph showing the Fulton's Index for the mice tested. To obtain a Fulton's Index, the heart and lungs are excised and weighed, and the ratio of RV free wall weight over septum plus left ventricular (LV) free wall weight is estimated and used as the index of RV hypertrophy.
Invasive hemodynamics to examine RV function were carried out using pressure-volume loop analysis (Scisence P/V loop hardware, London, Ontario with IOX2 analysis software, EMKA, Falls Church, Va.). Contractility index (dP/dtmax/IP), Powermax/EDV, and ejection fraction as indicators of RV systolic function as well as the time constant of relaxation (Tau) and dP/dtmin as measures of RV relaxation were determined.

[2] = biological target: T1, Nox2 oxidase (COS-Nox2 lysate: Nox2, p22phox, p47phox, p67phox) (Homo sapiens, UniProt P14598); experiment: Cell-free SOD-inhibitable cytochrome c reduction assay, O2- production in COS-Nox2 lysates; assay type: biochemical; conditions: for rate of O2- generation, SOD-inhibitable reduction of cytochrome c: 0 μM control 1.33±0.1
T1 construct: host or cells: COS 7 cells, stably transfected; cell lysate used
T1 sequence (P14598 1-390): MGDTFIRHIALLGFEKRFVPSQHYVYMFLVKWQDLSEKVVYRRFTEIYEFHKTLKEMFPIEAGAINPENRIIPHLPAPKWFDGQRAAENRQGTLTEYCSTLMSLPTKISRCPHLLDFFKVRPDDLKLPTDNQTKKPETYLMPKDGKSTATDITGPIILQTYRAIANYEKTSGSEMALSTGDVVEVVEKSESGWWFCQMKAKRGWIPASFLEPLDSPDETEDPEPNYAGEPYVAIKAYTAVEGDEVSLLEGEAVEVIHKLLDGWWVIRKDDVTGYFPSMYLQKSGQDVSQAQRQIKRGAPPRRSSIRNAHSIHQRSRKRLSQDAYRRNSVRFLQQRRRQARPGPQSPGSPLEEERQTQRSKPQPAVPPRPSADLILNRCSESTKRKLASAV
Procedure: To test this hypothesis, the inhibitory activity of Nox2ds was assessed in cell-free assays using reconstituted systems expressing either Nox1, 2 or 4 oxidase. Nox 2 oxidase was recapitulated by stably transfecting COS 7 cells with Nox2, p22phox, p47phox, and p67phox (aka COS-Nox2). Nox1 oxidase was obtained by transfecting COS 7 cells with Nox1, p22phox, NOXO1 and NOXA1 (COS-Nox1), and Nox 4 oxidase was regenerated by transfection of COS 7 cells with Nox4 and p22phox. […] Our new data support selectivity of Nox2ds peptide in differentiating the contribution of Nox2 vs. Nox1 and Nox4 NADPH oxidase and its potential clinical use in ameliorating cardiopulmonary diseases.
COS-Nox2: COS 7 cells transfected with p22^phox, Nox2, p47^phox and p67^phox (M. Dinauer, Indiana University). (Price M O, McPhail L C, Lambeth J D, Han C H, Knaus U G, Dinauer M C. Blood. 2002 Apr. 15; 99(8):2653-61.)
Superoxide (O2^−) production was measured in COS-Nox1 and COS-Nox2 lysates by determining the rate of O2^− dismutase (SOD) inhibitable cytochrome c reduction and by electron paramagnetic resonance (EPR).
COS-Nox2, COS-Nox1/NOXO1/NOXA1, and COS-22 cells were suspended to a concentration of 5×10^7 cells/ml in ice-cold disruption buffer (8 mM potassium, sodium phosphate buffer, pH 7.0, 131 mM NaCl, 340 mM sucrose, 2 mM NaN3, 5 mM MgCl2, 1 mM EGTA, 1 mM EDTA, and protease inhibitor cocktail). The cells were lysed by five freeze/thaw cycles and passed through a 30-gauge needle five times to further lyse the cells. Cell disruption was confirmed by phase-contrast microscopy. The cell lysate was centrifuged at 1000 g for 10 min at 4° C. to remove unbroken cells, nuclei, and debris. Throughout all these procedures, extreme care was taken to maintain the lysate at a temperature close to 0° C. Superoxide production was calculated from the initial linear rate (over 10 min) of SOD-inhibitable cytochrome c reduction quantified at 550 nm using the extinction coefficient of 21.1 mM-1 cm-1 (Biotek Synergy 4 hybrid multimode microplate reader). The oxidase assay buffer consisted of 65 mM sodium phosphate buffer (pH 7.0), 1 mM EGTA, 10 μM FAD, 1 mM MgCl2, 2 mM NaN3, and 0.2 mM cytochrome c. The components of the cell-free system were added in the following order: oxidase assay buffer, cell lysate (5×10^5 cell equivalents/well), and Nox2ds/Scrmb Nox2ds peptides at a final concentration of 0.1, 0.3, 1.0, 3.0, and 10 μM. The plates were placed on an orbital shaker to mix contents for 5 min at 120 movements/min at room temperature. LIDS, an established lipid activator of phagocyte cell-free systems, was added at a concentration of 130 μM, and O2^− production was initiated by the addition of 180 μM NADPH. The concentration of Nox2ds peptide that caused 50% inhibition of O2^− production (IC50) in COS-Nox2 cell lysates was calculated by Prism 5 (GraphPad Software, La Jolla, Calif., USA).
Cytochrome C Assay. FIG. 3A. Rate of O2^− production in COS-Nox2 lysates pretreated with Nox2ds or scrambled control (Scrmb Nox2ds). O2^− production was initiated by the addition of NADPH and measured by the SOD-inhibitable cytochrome c reduction for 10 min.

## CSTRVRRQL-NH2 [Nox2ds, CSTRVRRQL]
[1]; hypoxia-induced pulmonary hypertension in mice
  right ventricular hypertrophy and RV pressure (in words): attenuated
[1]; hypoxic mice, n=2, normoxic 0.21±0.01, hypoxic 0.27±0.02, preliminary data
  right ventricule/left ventricule+septum ratio (Fulton's Index): 0.22±0.004
[2]; 0.1 μM peptide
  rate of O2- generation, SOD-inhibitable reduction of cytochrome c: 1.36±0.1 nmol O2^−/min/10^7 lysate-cell equivalents
[2]; 0.3 μM peptide
  rate of O2- generation, SOD-inhibitable reduction of cytochrome c: 1.05±0.2 nmol O2^−/min/10^7 lysate-cell equivalents
[2]; 1 μM peptide
  rate of O2- generation, SOD-inhibitable reduction of cytochrome c: 0.83±0.1 nmol O2^−/min/10^7 lysate-cell equivalents
[2]; 3 μM peptide
  rate of O2- generation, SOD-inhibitable reduction of cytochrome c: 0.82±0.1 nmol O2^−/min/10^7 lysate-cell equivalents
[2]; 10 μM peptide
  rate of O2- generation, SOD-inhibitable reduction of cytochrome c: 0.54±0.1 nmol O2^−/min/10^7 lysate-cell equivalents
[2]; cytochrome c assay
  inhibition of Nox2-oxidase O2- production (in words): concentration-dependently inhibited
